This experiment addresses Tyrosine-protein kinase BTK (Homo sapiens, UniProt Q06187). The experiment in a line: Microfluidic Off-Chip Mobility Shift Assay Protocol for Potency Assessment Against BTK Enzyme: Briefly, 2.5× stocks of full-length human BTK (08-080) from CarnaBio USA, Inc., Natick, Mass., 1.6×ATP and appropriate kinKDR peptide substrate (FITC-AHA-[…]-NH2; developed in-house) were prepared in kinase reaction buffer consisting of 25 mM MgCl2, 0.015% Brij-35 (30%), 100 mM HEPES, pH 7.5, and 10 mM DTT. 5 uL of enzyme buffer and 7.5 uL of ATP/kinKDR peptide substrate mix were added to Matrix (#115304) 384-well, sterile, polypropylene plates (Thermo Fisher Scientific, Hudson, N.H.) with 125 nL of serially diluted compounds prepared in 100% DMSO, and incubated for 90 min. at 27° C. Following the incubation period, reactions were stopped by adding 60 uL stop buffer consisting of 100 mM HEPES, pH 7.5, 0.015% Brij-35 (30%), 0.277% Coating Reagent #3 (Caliper Life Sciences, Mountain View, Calif.), 5% DMSO. Stopped reactions were monitored at −2 PSI, −3000 V/−700 V in a LabChip 3000 plate reader from Caliper Life Sciences, a PerkinElmer Company (Hopkinton, Mass.), and the activity was measured by off-chip mobility shift assay measuring the charge/mass difference between substrate and product resulting from peptide phosphorilation. IC50 and efficacy were determined by plotting log [Inhibitor] vs. % Activity in GeneData Screener (Basel, Switzerland).

By IC50 is commonly meant the concentration that gives 50% inhibition.

Molecules are shown by their SMILES. Bounds are passed on as bounds.

Chain of Tyrosine-protein kinase BTK (Q06187 whole entry): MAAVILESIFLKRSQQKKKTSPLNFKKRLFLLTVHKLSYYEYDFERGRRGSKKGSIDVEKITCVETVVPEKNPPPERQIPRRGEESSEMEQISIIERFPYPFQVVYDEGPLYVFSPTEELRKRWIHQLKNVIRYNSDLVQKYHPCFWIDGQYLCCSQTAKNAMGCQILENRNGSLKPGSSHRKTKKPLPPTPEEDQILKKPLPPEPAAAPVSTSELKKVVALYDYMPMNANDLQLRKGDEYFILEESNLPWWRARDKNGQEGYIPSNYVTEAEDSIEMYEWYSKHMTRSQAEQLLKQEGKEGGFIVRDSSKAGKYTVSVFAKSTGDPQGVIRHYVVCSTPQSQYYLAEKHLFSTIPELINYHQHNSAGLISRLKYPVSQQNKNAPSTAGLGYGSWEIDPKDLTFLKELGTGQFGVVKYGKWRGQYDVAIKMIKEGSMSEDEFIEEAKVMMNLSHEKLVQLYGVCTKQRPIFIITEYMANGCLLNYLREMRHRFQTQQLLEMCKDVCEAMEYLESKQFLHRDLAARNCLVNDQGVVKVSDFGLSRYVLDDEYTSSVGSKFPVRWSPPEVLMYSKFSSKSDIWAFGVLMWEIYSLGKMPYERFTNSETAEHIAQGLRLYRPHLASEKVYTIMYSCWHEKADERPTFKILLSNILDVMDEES

On to `CC(C)(C)c1cc(C(=O)NC2CCCCc3cc(-c4ccnc5[nH]c(=O)[nH]c45)ccc32)on1` (stereo unspecified), for which the half-inhibitory concentration (IC50) is less than 10 nM.

The record behind these values is ChEMBL document CHEMBL5726851, “2-oxo-imidazopyridines as reversible BTK inhibitors and uses thereof” (2019).
